Data on 7 compounds can be found in US6921773B2, “Use of α-1AR subtype-selective drugs in patients with acute myocardial infarction” (Duke University, priority 1999, dated 2005).

For one series, the system named is human mammary artery. As to the kind of experiment: Phenylephrine-induced mammary artery contraction (isometric tension, organ chambers), with or without a1AR antagonists. The settings on record: for Kb: read-out: Potency in inhibiting mammary artery contraction (pKB) (converted); for Shift of phenylephrine dose response by antagonist: prazosin 10^-9 and 10^-8 mol/L, 5-MU/spiperone/BMY7378 10^-8 and 10^-7 mol/L. From the text:
Mammary arteries were immersed in cold oxygenated Krebs-Ringer bicarbonate solution (118.3 mmol/L NaCl, 4.7 mmol/L KCl, 1.2 mmol/L MgSO4, 1.2 mmol/L KHPO4, […], 25 mmol/L NaHCO3, […], […]), cleaned of loose connective tissue, cut into 4-5 mm long rings, and suspended for isometric tension recording in organ chambers. One stirrup was anchored to the chamber and the other connected to a strain gauge (FT-102) for measurement of isometric force (MacLab, CB Sciences; Milford, Mass.). All concentration effect curves were performed at optimum resting tone (˜3 g in pilot studies). Contractile response to 60 mmol/L KCI was performed; this determined vessel viability and facilitated normalization of phenylephrine response across vessel rings. Phenylephrine dose-response curves were generated (10^−4-10^−9mol/L) in ½ log order concentrations in the absence/presence of competitive a1AR antagonists. […] Antagonist potency was expressed as the dissociation constant (KB) determined from pKB=log[B]log(DR-1), where [B] is antagonist concentration and DR the dose ratio produced by antagonist. Dose response curves were analyzed using DOSE RESPONSE software (MacLab, CB Sciences).

For a further series, the system named is a1AR subtypes. In words: Competition analysis against [125I]HEAT in human vessel membranes. Type of series: binding. The settings on record: mammary, renal, splenic arteries, and vena cava; n=3 experiments per vessel. On the procedure: (§1) Vessels were weighed, lumen diameter measured, pulverized under liquid nitrogen, and suspended in cold lysis buffer (5 mmol/L Tris HCl and 5 mmol/L EDTA, pH 7.4) with protease inhibitors.^14 After lysate preparation, membranes were resuspended in cold binding buffer (150 mmol/L NaCl, 50 mmol/L Tris·HCl, 5 mmol/L EDTA, with protease inhibitors, pH 7.4) as previously described;^14 protein concentration was determined using the bicinchoninic acid method (Pierce, Rockford, Ill.). Full saturation binding isotherms were performed in selected human vessels (aorta, mammary artery, saphenous vein) in 250 μl binding buffer (20-60 μg vessel membrane protein) using the α1-adrenergic antagonist [^125I]HEAT(2-[b-(hydroxy-3[^125I]iodophenyl)ethyl-aminomethyl]-tetralone; DuPont-NEN; Boston, Mass.) as previously described.^14 To measure total a1AR density in all vessels, a saturating concentration (300 pmol/L) of the [^125I]HEAT was used.

For series [1] the following is noted: elderly patients; compared with alfuzosin (non-selective); cited from earlier work.
The target of a further series is a1AR. As to the kind of experiment: [125I]HEAT saturation binding isotherms in human vessel membranes. The settings on record: n=2-4. The procedure: as §1
Setting [2] is: Homo sapiens, phenylephrine dose response curves, mean±SEM.

“Also recorded” adds a separate entry of the source.

For the compound `COc1cc2nc(N3CCN(C(=O)c4ccco4)CC3)nc(N)c2cc1OC` [prazosin], the Kb in the series with human mammary artery (setting [2]) was 0.631 nM. For the same compound, the “Shift of phenylephrine dose response by antagonist” value (“Shift” below) in the series with human mammary artery is listed as “concentration dependent shift in potency without reducing maximum response”.
As for `COc1ccccc1N1CCN(CCN2C(=O)CC3(CCCC3)CC2=O)CC1` [BMY7378], the “Shift” value in the series with human mammary artery was “does not produce a significant shift; also recorded: does not produce a shift in dose response”.
`COc1ccccc1N1CCN(CCCNc2c(C)c(=O)n(C)c(=O)n2C)CC1` [5-MU]: the “Number of binding sites in competition analysis” value in the series with a1AR subtypes is “binds to two sites”. The “Potency in inhibiting mammary artery contraction (pKB)” value with human mammary artery (phenylephrine dose response curves, mean±SEM) worked out at 8.4±0.63. In addition, the “Shift” value in the series with human mammary artery is given as “concentration dependent shift in potency without reducing maximum response”.
Take `CNC[C@H](O)c1cccc(O)c1` [Phenylephrine]: the EC50 in the series on human mammary artery (Homo sapiens, 10 mammary arteries, mean±SEM, read-out: pD2 of isometric contraction (converted)) was 1000 nM.
As for `O=C(CCCN1CCC2(CC1)C(=O)NCN2c1ccccc1)c1ccc(F)cc1` [spiperone], in the series with human mammary artery (setting [2]), the Kb was 2.51 nM. The “Shift” value in the series with human mammary artery is listed as “concentration dependent shift in potency without reducing maximum response”.
For `CCOc1ccccc1OCCN[C@H](C)Cc1ccc(OC)c(S(N)(=O)=O)c1` [tamsulosin], in series [1], the Blood pressure perturbation entry was “less blood pressure perturbation”.
As for `O=C1c2ccccc2CCC1CNCCc1ccc(O)c(I)c1` (stereo not shown) [^125I-HEAT, 2-[b-(hydroxy-3[^125I]iodophenyl)ethyl-aminomethyl]-tetralone], the Kd turned out to be 0.13 ± 0.0002 nM at a1AR (aorta), 0.13 ± 0.0031 nM on a1AR (mammary artery) and 0.13 ± 0.00065 nM on a1AR (saphenous vein).

As a reminder, the Kd is the free concentration of one partner at which half of the binding sites on the other are occupied at equilibrium, for simple one-to-one binding.
